{"source": "paper PMC6272306", "about": "“LC-MS/MS Determination and Pharmacokinetic Study of Pedunculoside in Rat Plasma after Oral Administration of Pedunculoside and Ilex rotunda Extract” (Molecules, 2015)", "key": {"[1]": {"assay": "Stability of PDC in rat plasma QC samples under various storage conditions", "assay_type": "in vitro ADME", "details": "n = 6", "method": "The results were compared with those obtained with freshly prepared QC samples. It could be seen from Table 3 that the results are well within the acceptance limits. Stability of PDC in plasma was tested by the analysis of six replicates of QC samples […] exposed to various storage conditions. To assess the short-term stability study, QC samples were kept at 25 °C for at least 4 h and samples were processed at different time points and were determined and compared with the freshly prepared QC samples. For the long-term stability, QC samples were determined after storage of the plasma samples at −20 °C for 2 months. For freeze-thaw stability, QC samples were subjected to three freeze/thaw cycles (room temperature to −20 °C). For post-preparation stability, the processed QC samples stored in the autosampler trials for 12 h at 4 °C, were analyzed and compared with the freshly prepared QC samples."}, "[2]": {"tested_on": "hyperlipidemic albino rats", "design": "method as in doi:10.1076/phbi.37.1.37.6314", "details": "cited from earlier work"}, "[3]": {"assay": "Pharmacokinetic study of PDC in rat plasma after oral administration of pure PDC or IRE (LC-MS/MS)", "assay_type": "in vivo, Sprague-Dawley rats", "details": "male, Sprague-Dawley, PDC in rat plasma, n = 6, mean ± SD; for CL/F: read-out: CLz/F (converted); for MRT last: read-out: MRT0–t; for MRT inf: read-out: MRT0–∞; for Vd/F: read-out: Vz/F; for half-life: read-out: t1/2z (converted)", "method": "The analytical procedures described in Section 3.3 were performed to quantify PDC in rat plasma samples obtained from 24 male Sprague-Dawley rats. Out of these rats, 12 were orally administered with pure PDC, whereas 12 were orally administered with IRE. Establishing an intravenous dose group might provide the bioavailability of PDC, however, the present experiment aimed to compare the pharmacokinetic differences of PDC between monomer and IRE groups after oral administration. A fully validated LC-MS/MS method was developed and successfully applied to the pharmacokinetic behavior of PDC in rats after oral administration of the pure PDC and IRE, which were given at the same equivalent doses (42 and 84 mg/kg PDC). The mean plasma concentration-time profiles of PDC and the herbal extract after oral administration at different doses are illustrated in Figure 3, and the estimated pharmacokinetic parameters are presented in Table 4. A simple and rapid protein precipitation method was used for the preparation of all the plasma samples (calibration standards and QC samples, and real plasma samples post-dose). Plasma sample aliquots (75 µL) were added with IS solution (50 µL, 200 ng/mL) and methanol (500 µL) in tubes, then vortex-mixed for 1 min, and centrifuged at 14,000× g for 10 min. […] The dried residue was reconstituted in 100 µL of methanol-H2O (70:30, v/v) and centrifuged at 14,000× g for 5 min before analysis, and an aliquot of 5 µL was injected into LC-MS/MS systems for analysis. All experimental procedures and protocols were approved by the Animal Care and Use Committee of Jilin University (Changchun, China). All the rats were fasted for 12 h before the experiment, and were randomly divided into four groups (n = 6 per group). Group I and II were intragastrically administrated an oral dose of 42 and 84 mg/kg pure PDC, respectively. Group III and IV were intragastrically administrated an oral dose of 0.16 and 0.32 g/kg IRE, which was equivalent to 42 and 84 mg/kg PDC, respectively. Both pure PDC and IRE powder was suspended in 0.5% carboxymethyl cellulose sodium (CMC-Na) solution just before use. Blood samples (0.3 mL) were collected from the orbital sinus venous plexus at 0, 0.083, 0.25, 0.5, 0.75, 1, 1.5, 2, 3, 4, 6, 8, and 12 h after gavage dosing. After centrifuging at 5000× g for 10 min, the plasma samples were obtained and frozen at −20 °C until analysis. The pharmacokinetic parameters including Cmax, Tmax, t1/2z, AUC0–t, AUC0–∞, CLz/F, and Vz/F were calculated by non-compartmental method using the DAS 2.0 pharmacokinetics program (Chinese Pharmacology Society, Beijing, China). An independent-sample t-test was performed twice to evaluate the differences of pharmacokinetic parameters between the two groups."}, "[4]": {"details": "processed rat plasma samples in autosampler, Post-preparation stability (4 °C for 12 h), nominal 0.60 ng/mL (LLOQ)"}, "[5]": {"details": "processed rat plasma samples in autosampler, Post-preparation stability (4 °C for 12 h), nominal 1.50 ng/mL (QC-low)"}, "[6]": {"details": "processed rat plasma samples in autosampler, Post-preparation stability (4 °C for 12 h), nominal 15.0 ng/mL (QC-medium)"}, "[7]": {"details": "processed rat plasma samples in autosampler, Post-preparation stability (4 °C for 12 h), nominal 180 ng/mL (QC-high)"}, "[8]": {"details": "rat plasma, Long-term stability (−20 °C for 2 months), nominal 0.60 ng/mL (LLOQ)"}, "[9]": {"details": "rat plasma, Long-term stability (−20 °C for 2 months), nominal 1.50 ng/mL (QC-low)"}, "[10]": {"details": "rat plasma, Long-term stability (−20 °C for 2 months), nominal 15.0 ng/mL (QC-medium)"}, "[11]": {"details": "rat plasma, Long-term stability (−20 °C for 2 months), nominal 180 ng/mL (QC-high)"}, "[12]": {"details": "rat plasma, Short-term (25 °C for 4 h), nominal 0.60 ng/mL (LLOQ)"}, "[13]": {"details": "rat plasma, Short-term (25 °C for 4 h), nominal 1.50 ng/mL (QC-low)"}, "[14]": {"details": "rat plasma, Short-term (25 °C for 4 h), nominal 15.0 ng/mL (QC-medium)"}, "[15]": {"details": "rat plasma, Short-term (25 °C for 4 h), nominal 180 ng/mL (QC-high)"}, "[16]": {"details": "rat plasma, Three freeze/thaw cycles (room temperature to −20 °C), nominal 0.60 ng/mL (LLOQ)"}, "[17]": {"details": "rat plasma, Three freeze/thaw cycles (room temperature to −20 °C), nominal 1.50 ng/mL (QC-low)"}, "[18]": {"details": "rat plasma, Three freeze/thaw cycles (room temperature to −20 °C), nominal 15.0 ng/mL (QC-medium)"}, "[19]": {"details": "rat plasma, Three freeze/thaw cycles (room temperature to −20 °C), nominal 180 ng/mL (QC-high)"}, "[20]": {"details": "42 mg/kg PDC (IRE dosage equivalent to PDC dosage)"}, "[21]": {"details": "84 mg/kg PDC (IRE dosage equivalent to PDC dosage)"}}, "note": "Like-named read-outs stand apart in the source and are kept apart here.", "data": [{"molecule": "C[C@@H]1CC[C@]2(C(=O)O[C@@H]3O[C@H](CO)[C@@H](O)[C@H](O)[C@H]3O)CC[C@]3(C)C(=CC[C@@H]4[C@@]5(C)CC[C@H](O)[C@@](C)(CO)[C@@H]5CC[C@]43C)[C@@H]2[C@]1(C)O", "note": "[PDC, Pedunculoside]", "values": [{"measurement": "Determined Conc. (Mean ± SD)", "setting": "[1]; [4]", "result": "0.596 ± 0.011", "unit": "ng/mL"}, {"measurement": "RE", "setting": "[1]; [4]", "result": "−0.60", "unit": "%"}, {"measurement": "Determined Conc. (Mean ± SD)", "setting": "[1]; [5]", "result": "1.65 ± 0.10", "unit": "ng/mL"}, {"measurement": "RE", "setting": "[1]; [5]", "result": 10.04, "unit": "%"}, {"measurement": "Determined Conc. (Mean ± SD)", "setting": "[1]; [6]", "result": "13.81 ± 0.63", "unit": "ng/mL"}, {"measurement": "RE", "setting": "[1]; [6]", "result": "−7.91", "unit": "%"}, {"measurement": "Determined Conc. (Mean ± SD)", "setting": "[1]; [7]", "result": "183.17 ± 2.59", "unit": "ng/mL"}, {"measurement": "RE", "setting": "[1]; [7]", "result": 1.76, "unit": "%"}, {"measurement": "Determined Conc. (Mean ± SD)", "setting": "[1]; [8]", "result": "0.573 ± 0.008", "unit": "ng/mL"}, {"measurement": "RE", "setting": "[1]; [8]", "result": "−4.56", "unit": "%"}, {"measurement": "Determined Conc. (Mean ± SD)", "setting": "[1]; [9]", "result": "1.52 ± 0.16", "unit": "ng/mL"}, {"measurement": "RE", "setting": "[1]; [9]", "result": 1.11, "unit": "%"}, {"measurement": "Determined Conc. (Mean ± SD)", "setting": "[1]; [10]", "result": "15.96 ± 0.68", "unit": "ng/mL"}, {"measurement": "RE", "setting": "[1]; [10]", "result": 6.39, "unit": "%"}, {"measurement": "Determined Conc. (Mean ± SD)", "setting": "[1]; [11]", "result": "160.70 ± 7.58", "unit": "ng/mL"}, {"measurement": "RE", "setting": "[1]; [11]", "result": "−10.72", "unit": "%"}, {"measurement": "Determined Conc. (Mean ± SD)", "setting": "[1]; [12]", "result": "0.673 ± 0.014", "unit": "ng/mL"}, {"measurement": "RE", "setting": "[1]; [12]", "result": 12.24, "unit": "%"}, {"measurement": "Determined Conc. (Mean ± SD)", "setting": "[1]; [13]", "result": "1.44 ± 0.09", "unit": "ng/mL"}, {"measurement": "RE", "setting": "[1]; [13]", "result": "−3.77", "unit": "%"}, {"measurement": "Determined Conc. (Mean ± SD)", "setting": "[1]; [14]", "result": "14.88 ± 1.03", "unit": "ng/mL"}, {"measurement": "RE", "setting": "[1]; [14]", "result": "−0.77", "unit": "%"}, {"measurement": "Determined Conc. (Mean ± SD)", "setting": "[1]; [15]", "result": "192.71 ± 11.42", "unit": "ng/mL"}, {"measurement": "RE", "setting": "[1]; [15]", "result": 7.06, "unit": "%"}, {"measurement": "Determined Conc. (Mean ± SD)", "setting": "[1]; [16]", "result": "0.570 ± 0.016", "unit": "ng/mL"}, {"measurement": "RE", "setting": "[1]; [16]", "result": "−5.00", "unit": "%"}, {"measurement": "Determined Conc. (Mean ± SD)", "setting": "[1]; [17]", "result": "1.38 ± 0.162", "unit": "ng/mL"}, {"measurement": "RE", "setting": "[1]; [17]", "result": "−7.82", "unit": "%"}, {"measurement": "Determined Conc. (Mean ± SD)", "setting": "[1]; [18]", "result": "16.32 ± 1.37", "unit": "ng/mL"}, {"measurement": "RE", "setting": "[1]; [18]", "result": 8.81, "unit": "%"}, {"measurement": "Determined Conc. (Mean ± SD)", "setting": "[1]; [19]", "result": "162.85 ± 15.57", "unit": "ng/mL"}, {"measurement": "RE", "setting": "[1]; [19]", "result": "−9.53", "unit": "%"}, {"measurement": "hypolipidemic activity", "setting": "[2]", "result": "significant hypolipidemic activity"}, {"measurement": "AUC(0-inf)", "setting": "[3]; [20]", "result": "379 ± 84.8", "unit": "ng·h/mL"}, {"measurement": "AUC(0-t)", "setting": "[3]; [20]", "result": "374 ± 82.9", "unit": "ng·h/mL"}, {"measurement": "Cmax", "setting": "[3]; [20]", "result": "95.2 ± 7.93", "unit": "ng/mL"}, {"measurement": "Tmax", "setting": "[3]; [20]", "result": "1.6 ± 0.42", "unit": "h"}, {"measurement": "CL/F", "setting": "[3]; [20]", "result": 1930, "unit": "mL/min/kg"}, {"measurement": "MRT last", "setting": "[3]; [20]", "result": "3.17 ± 0.45", "unit": "h"}, {"measurement": "MRT inf", "setting": "[3]; [20]", "result": "3.33 ± 0.48", "unit": "h"}, {"measurement": "Vd/F", "setting": "[3]; [20]", "result": "287 ± 63.5", "unit": "L/kg"}, {"measurement": "half-life", "setting": "[3]; [20]", "result": "1.73 ± 0.11", "unit": "h"}, {"measurement": "AUC(0-inf)", "setting": "[3]; [21]", "result": "665 ± 151", "unit": "ng·h/mL"}, {"measurement": "AUC(0-t)", "setting": "[3]; [21]", "result": "661 ± 149", "unit": "ng·h/mL"}, {"measurement": "Cmax", "setting": "[3]; [21]", "result": "174 ± 12.9", "unit": "ng/mL"}, {"measurement": "Tmax", "setting": "[3]; [21]", "result": "1.8 ± 0.91", "unit": "h"}, {"measurement": "CL/F", "setting": "[3]; [21]", "result": 2110, "unit": "mL/min/kg"}, {"measurement": "MRT last", "setting": "[3]; [21]", "result": "3.08 ± 0.42", "unit": "h"}, {"measurement": "MRT inf", "setting": "[3]; [21]", "result": "3.15 ± 0.44", "unit": "h"}, {"measurement": "Vd/F", "setting": "[3]; [21]", "result": "273 ± 45.6", "unit": "L/kg"}, {"measurement": "half-life", "setting": "[3]; [21]", "result": "1.5 ± 0.08", "unit": "h"}]}]}
